Assay results published in the NIST ThermoML archive (doi:10.1016/j.jct.2008.09.002).
± gives the expanded uncertainty stated by the source.

What was measured:
[1] = molar heat capacity at constant pressure; xn = mol fraction of the nth substance listed; settings: 101.3 kPa, Liquid, Small sample (50 mg) DSC
[2] = xn = mol fraction of the nth substance listed; settings: 101.3 kPa, Liquid, Vibrating tube method

CCCCn1cc[n+](C)c1.COS(=O)(=O)[O-] [1-butyl-3-methylimidazolium methyl sulfate] + C[N+](=O)[O-]
Settings | mass density, [2] [kg/m3] | molar heat capacity at constant pressure, [1] [J/K/mol]
293.15 K, x1 = 0.0522 | 1158.1 ± 0.7 | 122.1 ± 1.9
293.15 K, x1 = 0.1 | 1168.5 ± 0.8 | 136.5 ± 2.1
293.15 K, x1 = 0.1966 | 1182.1 ± 0.8 | 166.4 ± 2.6
293.15 K, x1 = 0.3059 | 1191.3 ± 0.9 | 200.5 ± 3.1
293.15 K, x1 = 0.4061 | 1196.9 ± 0.9 | 231.4 ± 3.6
293.15 K, x1 = 0.5025 | 1200.8 ± 1 | 261.5 ± 4.1
293.15 K, x1 = 0.5889 | 1203.5 ± 1 | 288 ± 4.5
293.15 K, x1 = 0.6844 | 1205.9 ± 1.1 | 317.2 ± 4.9
293.15 K, x1 = 0.7832 | 1207.8 ± 1.2 | 347.4 ± 5.4
293.15 K, x1 = 0.8654 | 1209.1 ± 1.2 | 372.6 ± 5.8
293.15 K, x1 = 0.9289 | 1210 ± 1.3 | 392.1 ± 6.1
298.15 K, x1 = 0.0522 | 1152.1 ± 0.7 | 122.4 ± 1.9
298.15 K, x1 = 0.1 | 1163 ± 0.7 | 137 ± 2.1
298.15 K, x1 = 0.1966 | 1177.3 ± 0.8 | 167 ± 2.6
298.15 K, x1 = 0.3059 | 1186.9 ± 0.9 | 201.3 ± 3.1
298.15 K, x1 = 0.4061 | 1192.8 ± 0.9 | 232.5 ± 3.6
298.15 K, x1 = 0.5025 | 1196.9 ± 1 | 262.7 ± 4.1
298.15 K, x1 = 0.5889 | 1199.8 ± 1 | 289.4 ± 4.5
298.15 K, x1 = 0.6844 | 1202.2 ± 1.1 | 318.9 ± 4.9
298.15 K, x1 = 0.7832 | 1204.3 ± 1.2 | 349.2 ± 5.4
298.15 K, x1 = 0.8654 | 1205.7 ± 1.2 | 374.6 ± 5.8
298.15 K, x1 = 0.9289 | 1206.7 ± 1.2 | 394.3 ± 6.1
303.15 K, x1 = 0.0522 | 1146.1 ± 0.7 | 122.8 ± 1.9
303.15 K, x1 = 0.1 | 1157.5 ± 0.7 | 137.5 ± 2.1
303.15 K, x1 = 0.1966 | 1172.4 ± 0.8 | 167.7 ± 2.6
303.15 K, x1 = 0.3059 | 1182.6 ± 0.9 | 202.3 ± 3.1
303.15 K, x1 = 0.4061 | 1188.7 ± 0.9 | 233.6 ± 3.6
303.15 K, x1 = 0.5025 | 1193 ± 1 | 263.9 ± 4.1
303.15 K, x1 = 0.5889 | 1196 ± 1 | 290.9 ± 4.5
303.15 K, x1 = 0.6844 | 1198.6 ± 1.1 | 320.6 ± 5
303.15 K, x1 = 0.7832 | 1200.8 ± 1.1 | 351.1 ± 5.4
303.15 K, x1 = 0.8654 | 1202.3 ± 1.2 | 376.7 ± 5.8
303.15 K, x1 = 0.9289 | 1203.3 ± 1.2 | 396.5 ± 6.1
308.15 K, x1 = 0.0522 | 1140.1 ± 0.7 | 123.3 ± 1.9
308.15 K, x1 = 0.1 | 1152 ± 0.7 | 138.1 ± 2.1
308.15 K, x1 = 0.1966 | 1167.6 ± 0.8 | 168.4 ± 2.6
308.15 K, x1 = 0.3059 | 1178.2 ± 0.9 | 203.2 ± 3.1
308.15 K, x1 = 0.4061 | 1184.7 ± 0.9 | 234.8 ± 3.6
308.15 K, x1 = 0.5025 | 1189.2 ± 1 | 265.1 ± 4.1
308.15 K, x1 = 0.5889 | 1192.3 ± 1 | 292.4 ± 4.5
308.15 K, x1 = 0.6844 | 1195 ± 1.1 | 322.2 ± 5
308.15 K, x1 = 0.7832 | 1197.4 ± 1.1 | 352.9 ± 5.5
308.15 K, x1 = 0.8654 | 1199 ± 1.2 | 378.7 ± 5.9
308.15 K, x1 = 0.9289 | 1200 ± 1.2 | 398.7 ± 6.2
313.15 K, x1 = 0.0522 | 1134.1 ± 0.7 | 123.8 ± 1.9
313.15 K, x1 = 0.1 | 1146.5 ± 0.7 | 138.7 ± 2.2
313.15 K, x1 = 0.1966 | 1162.8 ± 0.8 | 169.1 ± 2.6
313.15 K, x1 = 0.3059 | 1173.9 ± 0.9 | 204.1 ± 3.2
313.15 K, x1 = 0.4061 | 1180.6 ± 0.9 | 235.9 ± 3.7
313.15 K, x1 = 0.5025 | 1185.3 ± 1 | 266.3 ± 4.1
313.15 K, x1 = 0.5889 | 1188.6 ± 1 | 293.8 ± 4.6
313.15 K, x1 = 0.6844 | 1191.5 ± 1.1 | 323.9 ± 5
313.15 K, x1 = 0.7832 | 1193.9 ± 1.1 | 354.7 ± 5.5
313.15 K, x1 = 0.8654 | 1195.6 ± 1.2 | 380.8 ± 5.9
313.15 K, x1 = 0.9289 | 1196.6 ± 1.2 | 400.8 ± 6.2
318.15 K, x1 = 0.0522 | 1128.1 ± 0.7 | 124.2 ± 1.9
318.15 K, x1 = 0.1 | 1141 ± 0.7 | 139.1 ± 2.2
318.15 K, x1 = 0.1966 | 1158 ± 0.8 | 169.7 ± 2.6
318.15 K, x1 = 0.3059 | 1169.5 ± 0.8 | 205 ± 3.2
318.15 K, x1 = 0.4061 | 1176.6 ± 0.9 | 237 ± 3.7
318.15 K, x1 = 0.5025 | 1181.5 ± 1 | 267.4 ± 4.1
318.15 K, x1 = 0.5889 | 1184.9 ± 1 | 295.3 ± 4.6
318.15 K, x1 = 0.6844 | 1187.9 ± 1.1 | 325.6 ± 5
318.15 K, x1 = 0.7832 | 1190.4 ± 1.1 | 356.5 ± 5.5
318.15 K, x1 = 0.8654 | 1192.2 ± 1.2 | 382.8 ± 5.9
318.15 K, x1 = 0.9289 | 1193.3 ± 1.2 | 403 ± 6.2
